Test results reported in the supplement of paper PMC10307832.

Experiments:
Experiment in all cases: relative viability (nuclei count vs DMSO), 5 days (fraction); higher = more cells survive
[1] = test system: NCI-H1975
Summary of the method: (§1)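 After 5 days of treatment, lung cancer cells in 1536-well plates were fixed and stained in a single step (final 0.05% Triton X-100, 1% formaldehyde, 1 ug/ml Hoechst) and their nuclei counted on 4× images. Treatment had been applied by pin tool the day after seeding as one drug alone or as a fixed anchor-drug dose with five library-drug doses (not always all listed) in √10 steps. Relative viability is the nuclei count of treated wells divided by that of vehicle wells, and values are medians of duplicate plates.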

[2] = test system: NCI-H322M
Summary of the method: as §1

[3] = test system: NCI-H1437
Summary of the method: as §1

[4] = test system: NCI-H522
Summary of the method: as §1

[5] = test system: LCLC-97TM1
Summary of the method: as §1

[6] = test system: NCI-H441
Summary of the method: as §1

[7] = test system: NCI-H647
Summary of the method: as §1

[8] = test system: NCI-H2342
Summary of the method: as §1

[9] = test system: NCI-H1915
Summary of the method: as §1

[10] = test system: NCI-H358
Summary of the method: as §1

[11] = test system: NCI-H23
Summary of the method: as §1

[12] = test system: NCI-H838
Summary of the method: as §1

`Cc1csc(=NC2CCCCC2)n1/N=C/c1ccc(O)c(O)c1O` [MIM1] + Cc1nc(Nc2ncc(C(=O)Nc3c(C)cccc3Cl)s2)cc(N2CCN(CCO)CC2)n1 [Dasatinib] (partner 0.075 µM) showed a relative viability ([1]; first compound 0.2 µM) of 0.355, a relative viability ([1]; first compound 0.6325 µM) of 0.377 and a relative viability ([1]; first compound 2 µM) of 0.346. For the same molecule, the relative viability ([1]; first compound 6.325 µM) was 0.185, the relative viability ([1]; first compound 20 µM) was 0.17 and the relative viability ([2]; first compound 0.2 µM) was 0.265. For the same molecule, the relative viability ([2]; first compound 0.6325 µM) was 0.245, the relative viability ([2]; first compound 2 µM) was 0.249 and the relative viability ([2]; first compound 6.325 µM) was 0.27. It also gave a relative viability ([2]; first compound 20 µM) of 0.38, a relative viability ([3]; first compound 0.2 µM) of 0.456 and a relative viability ([3]; first compound 0.6325 µM) of 0.406. The relative viability ([3]; first compound 2 µM) was 0.55, the relative viability ([3]; first compound 6.325 µM) was 0.285 and the relative viability ([3]; first compound 20 µM) was 0.151. The relative viability ([4]; first compound 0.2 µM) was 0.788, the relative viability ([4]; first compound 0.6325 µM) was 0.698 and the relative viability ([4]; first compound 2 µM) was 0.93. The relative viability ([4]; first compound 6.325 µM) was 0.743, the relative viability ([4]; first compound 20 µM) was 0.585 and the relative viability ([5]; first compound 0.2 µM) was 0.866. For the same molecule, the relative viability ([5]; first compound 0.6325 µM) was 0.709, the relative viability ([5]; first compound 2 µM) was 1.02 and the relative viability ([5]; first compound 6.325 µM) was 0.552. For the same molecule, the relative viability ([5]; first compound 20 µM) was 0.431, the relative viability ([6]; first compound 0.2 µM) was 0.522 and the relative viability ([6]; first compound 2 µM) was 0.631. It also gave a relative viability ([6]; first compound 6.325 µM) of 0.481, a relative viability ([6]; first compound 20 µM) of 0.262 and a relative viability ([7]; first compound 0.2 µM) of 0.232. The relative viability ([7]; first compound 0.6325 µM) was 0.225, the relative viability ([7]; first compound 6.325 µM) was 0.145 and the relative viability ([7]; first compound 20 µM) was 0.0584. It also gave a relative viability ([8]; first compound 0.2 µM) of 0.319, a relative viability ([8]; first compound 0.6325 µM) of 0.316 and a relative viability ([8]; first compound 2 µM) of 0.331. It also gave a relative viability ([8]; first compound 6.325 µM) of 0.299, a relative viability ([8]; first compound 20 µM) of 0.418 and a relative viability ([9]; first compound 0.2 µM) of 0.354. For the same molecule, the relative viability ([9]; first compound 0.6325 µM) was 0.293, the relative viability ([9]; first compound 2 µM) was 0.325 and the relative viability ([9]; first compound 6.325 µM) was 0.269. It also gave a relative viability ([9]; first compound 20 µM) of 0.187, a relative viability ([10]; first compound 0.2 µM) of 0.182 and a relative viability ([10]; first compound 0.6325 µM) of 0.174. The relative viability ([10]; first compound 2 µM) was 0.179, the relative viability ([10]; first compound 6.325 µM) was 0.173 and the relative viability ([10]; first compound 20 µM) was 0.126. The relative viability ([11]; first compound 0.2 µM) was 0.826, the relative viability ([11]; first compound 2 µM) was 0.684 and the relative viability ([11]; first compound 6.325 µM) was 0.471. It also gave a relative viability ([11]; first compound 20 µM) of 0.246, a relative viability ([12]; first compound 0.2 µM) of 0.326 and a relative viability ([12]; first compound 0.6325 µM) of 0.298. It also gave a relative viability ([12]; first compound 6.325 µM) of 0.314.
